“And” between values parts separate entries of the source, which are not always exact repeats. Equal entries are not always repeated. Where two headings read alike, the source gives them in different places.
Columns and labels:
[1] = test system: SH-SY5Y neuroblastoma cells; experiment: MTT cytotoxicity assay; assay type: cell-based, human; details: 48 h
Protocol: The human neuroblastoma SH-SY5Y cells were generously donated by collaborators from the Blackburn Laboratory, University of Cape Town. Cells were cultured in monolayer in Dulbecco’s Modified Eagle Medium (DMEM, Gibco, Life Technologies Corporation UK), supplemented with 10% foetal bovine serum (FBS, Gibco, Life Technologies Corporation, Paisley, UK), 100 U/ml penicillin, and 100 µg/ml streptomycin (Lonza Group Ltd., Verviers Belgium). Cultures were incubated at 37 °C in a humidified atmosphere with 5% CO2. The growth medium was replaced every 3 days and cells were sub-cultured when they attained 70 to 80% confluency using a solution of 0.25% trypsin EDTA (Lonza Group Ltd., Verviers, Belgium).
SH-SY5Y cells were plated in growth medium in the flat bottom 96 well plates at a density of approximately 7500 cells/well. The cells were allowed to adhere to the plate surface for 24 h and following this their media were replenished with fresh media containing the test compounds at 10 µM, 50 µM and 100 µM concentrations dissolved in DMSO. Vehicle control cells were treated with DMSO, at a concentration similar to that of the highest concentration of the test compounds. Following an incubation period of 48 h, 10 µl of MTT solution (5 mg/ml) was added to each well. This was further incubated for 4 h and the formazan formed was solubilised with 100 µl of DMSO. The plates were read using a BMG Labtech Omega® POLARStar plate reader spectrophotometer (Ortenberg, Germany) to determine the absorbance recorded at a wavelength of 570 nm. The percentage cell viability was calculated relative to the vehicle control using the following formula: Cellviability%=(Absorbanceoftreatedwell/Absorbanceofuntreatedwell)×100 [drawing 1]

recombinant human MAO-A = target: T1, recombinant human MAO-A (Homo sapiens, UniProt P21397); experiment: biochemical; details: 37 °C
T1 sequence (P21397 1-527): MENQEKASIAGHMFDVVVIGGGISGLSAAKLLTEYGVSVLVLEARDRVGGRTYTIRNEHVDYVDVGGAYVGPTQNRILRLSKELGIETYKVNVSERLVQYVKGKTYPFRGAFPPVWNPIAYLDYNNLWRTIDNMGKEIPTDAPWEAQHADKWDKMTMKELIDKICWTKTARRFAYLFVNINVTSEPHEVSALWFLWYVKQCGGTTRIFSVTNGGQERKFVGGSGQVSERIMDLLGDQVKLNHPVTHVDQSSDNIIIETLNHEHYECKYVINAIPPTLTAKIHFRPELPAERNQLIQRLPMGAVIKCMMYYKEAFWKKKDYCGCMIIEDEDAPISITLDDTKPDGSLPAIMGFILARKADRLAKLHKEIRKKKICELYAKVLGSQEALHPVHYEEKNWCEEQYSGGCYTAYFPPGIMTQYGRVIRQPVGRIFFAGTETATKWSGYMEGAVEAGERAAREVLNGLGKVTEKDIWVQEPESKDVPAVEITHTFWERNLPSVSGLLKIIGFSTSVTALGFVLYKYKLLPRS
Protocol: The stock was then further diluted by factors of ten to produce solutions of 1 mM, 100 µM, 10 µM, 1 µM, and 0.1 µM which would correspond to concentrations of 100 µM, 10 µM, 1 µM, 0.1 µM, and 0.01 µM in the final reaction mixture. A potassium phosphate buffer ([…] 100 mM, pH 7.4, 0.9% w/v NaCl) was prepared and refrigerated until further use. The enzyme stock solutions were prepared by dissolving 2.5 mg of enzyme in 33.33 ml of phosphate buffer to produce stock solutions of 0.075 mg/ml which were stored in aliquots at −80 °C until use. Once in the final reaction mixture, this enzyme solution will have a concentration of 0.0075 mg/ml. […] The fresh substrate was prepared on the day of the assay. The assay was carried out in 2 ml Eppendorf vials. […] Following this, 25 µl of the enzyme stock were added to each vial in 10 s intervals and the vials were incubated at 37 °C for 10 min. […] To stop the reaction at the end of this time 150 hx00B5;l of 2 N NaOH was added and the mixture was shaken. Using a micropipette 80 hx00B5;l of the mixture was transferred to a well in a black 96 well plate. The plate was placed in the fluorescent plate reader and read at an excitation/emission wavelength of 310 nm/410 nm. Each assay was run in triplicate and the data were analysed with Graph Pad Prism 8 software (San Diego, USA).
The MAO inhibitory activity of the compounds was assessed using a fluorometric assay with recombinant human MAO-A and human MAO-B enzymes.

[2] = test system: Aβ 25–35 treated SH-SY5Y cells; experiment: Amyloid-beta 25–35 induced neurotoxicity (MTT); assay type: cell-based, human; details: 10 µM to 100 µM compound, Aβ 25–35 20 µM, 24 h
Protocol: Human neuroblastoma cells (SH-SY5Y) were grown in a culture medium (DMEM/F-12) and supplemented with 10% foetal bovine serum. Prophylactically, 1% v/v of penicillin/streptomycin was added to the medium. Cells were maintained by incubation at 37 °C with 5% carbon dioxide. All experiments were performed by seeding the cells into 24-well plates. Once confluent, the cells were then pre-treated with compounds 6 and 7 (10 µM) for 1 h, followed by Aβ 25–35 addition (20 µM) and incubated for 24 h. The untreated control cells were treated with DMEM which contained DMSO and were incubated in the same manner as the treated cells. […] The level of significance was analysed using One-way ANOVA statistical analysis and expressed using the p-value.
The accumulation of extracellular Aβ plaques has been marked as one of the pathological hallmarks of neurotoxicity associated with AD[59–61] and coumarin moieties have previously shown to inhibit Aβ plaque formation and Aβ induced neurotoxicity[62]^,[63]. To further explore the neuroprotective potential of the propargylamine-containing coumarin derivatives 6 and 7, their ability to curb neurotoxicity induced by the amyloid-β (Aβ) protein was thus assessed according to the method described in the experimental section. […]

recombinant human MAO-B = recombinant human MAO-B (Homo sapiens, UniProt P27338); assay type: biochemical; details: preincubation 0-60 min, inhibitor about twofold IC50
Chain of recombinant human MAO-B (P27338 whole entry): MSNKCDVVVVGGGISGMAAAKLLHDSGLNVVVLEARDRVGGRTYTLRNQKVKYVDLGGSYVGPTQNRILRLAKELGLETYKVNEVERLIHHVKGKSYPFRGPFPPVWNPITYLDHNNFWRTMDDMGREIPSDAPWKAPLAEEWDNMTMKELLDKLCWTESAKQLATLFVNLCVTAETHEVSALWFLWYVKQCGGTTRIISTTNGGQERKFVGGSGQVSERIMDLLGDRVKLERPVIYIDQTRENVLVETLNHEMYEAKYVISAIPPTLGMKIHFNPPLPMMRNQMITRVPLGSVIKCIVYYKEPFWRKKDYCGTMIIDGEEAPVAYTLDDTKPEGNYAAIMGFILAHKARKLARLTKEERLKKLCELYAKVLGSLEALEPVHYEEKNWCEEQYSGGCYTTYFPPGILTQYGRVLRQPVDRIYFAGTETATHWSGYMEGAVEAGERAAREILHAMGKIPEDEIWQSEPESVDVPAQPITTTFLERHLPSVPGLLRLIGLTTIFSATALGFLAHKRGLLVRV
Protocol: The concentration of inhibitor in these incubations was approximately twofold the measured IC50 value for the inhibition of the MAO-B enzyme. Potassium phosphate buffer (100 mM, pH 7.4, made isotonic with NaCl) was used as the incubation medium. A final concentration of 30 hx00B5;M kynuramine for MAO-B was then added to the preincubated enzyme preparations and the resulting 250 µl reactions were incubated at 37 °C for 15 min. The reactions were terminated with the addition of 200 µl NaOH (2 N) and a volume of 600 µl distilled water was added to each reaction. The fluorescence of the MAO-B generated 4-hydroxyquinoline in the supernatant fractions were measured using a fluorescent microplate reader at an excitation wavelength of 310 nm and an emission wavelength of 400 nm. Time-dependent graphs were plotted against the relative fluorescent unit readings (RFU).
To determine the binding mode of the studied compounds on MAO-B, the time dependency of enzyme inhibition was measured. If the compounds form a covalent or irreversible adduct with the enzyme, a time-dependent reduction of enzyme activity would be expected. […] For this purpose, the concentrations of the test compounds chosen were approximately twofold the measured IC50 values for the inhibition of the respective enzymes.

[3] = kynuramine 45 µM, read-out: MAO-A IC50

SMILES	cell survival (MTT) ([1]; 50 µM)	cell survival (MTT) ([1]; 100 µM)	IC50 (recombinant human MAO-A; [3])	neuroprotection against Aβ 25–35 cytotoxicity [2]	mode of MAO-B inhibition (time dependency) (recombinant human MAO-B)	IC50 (recombinant human MAO-A; MAO-A IC50, kynuramine 45 µM)
O=c1oc2cc(OCCc3ccccc3)ccc2cc1CBr [Compound 4, 3-(bromomethyl)-7-(2-phenylethoxy)-2H-1-benzopyran-2-one]	65%	7%	480 nM and 476 nM			
C#CCNCc1cc2ccc(OCCc3ccccc3)cc2oc1=O [Compound 6, 7-(2-phenylethoxy)-3-{[(prop-2-yn-1-yl)amino]methyl}-2H-1-benzopyran-2-one]			3860 nM	did not show any significant ability to mitigate the cytotoxic effects	reversible inhibitors of MAO-B	
CCN(CC)C(=O)Oc1ccc2cc(CBr)c(=O)oc2c1 [Compound 5, 3-(bromomethyl)-2-oxo-2H-1-benzopyran-7-yl-diethylcarbamate]	0%	0%	360 nM and 355 nM			
C#CCNCc1cc2ccc(OC(=O)N(CC)CC)cc2oc1=O [Compound 7, 2-oxo-3-{[(prop-2-yn-1-yl)amino]methyl}-2H-1-benzopyran-7-yl-diethylcarbamate]				did not show any significant ability to mitigate the cytotoxic effects	reversible inhibitors of MAO-B	20800 nM
